# Measured values reported in the Deep4Chem optical property database.
# Where “and” joins values, the source holds several entries; their conditions need not be identical. Equal values may be shown once.
# Assay: solvent given as SMILES
structure (smiles),measurement,setting,value
COc1cc(C2=c3c(c4ccc(C(C)(C)C)cc4c4c(OC)c(OC)c(OC)cc34)=[N+]3C2=Nc2c(-c4cc(OC)c(OC)c(OC)c4)c4c5cc(OC)c(OC)c(OC)c5c5cc(C(C)(C)C)ccc5c4n2[B-]3(F)F)cc(OC)c1OC,emission maximum,in Cc1ccccc1,820 nm
C(#Cc1ccccc1)c1ccccc1,emission maximum,in CO,307 nm
same,emission maximum,in ClC(Cl)Cl,320 nm
same,emission maximum,in ClCCl,302 nm
CC(C)(C)c1ccc(-n2c(-c3ccc(-c4cccc(-c5c(-c6ccccc6)nc6ccccn56)c4)cc3)nc3c4ccccc4c4ccccc4c32)cc1,emission maximum,in ClCCl,417 nm
COC(=O)c1nc2cnc(N)nc2n1Cc1ccccc1,emission maximum,in C1COCCO1,386 nm
same,emission maximum,in CC#N,388 nm
same,emission maximum,in CO,412 nm
same,emission maximum,in ClCCl,379 nm
same,emission maximum,in O,420 nm
CC(C)c1cccc(C(C)C)c1N1C(=O)c2cccc3c(Oc4ccc(C(C)(C)c5ccccc5)cc4)ccc(c23)C1=O,emission maximum,in ClCCl,435 nm
c1ccc(Nc2nc(Nc3ccccc3)nc(Nc3ccc4ccc5cccc6ccc3c4c56)n2)cc1,emission maximum,in CC#N,395 nm
same,emission maximum,in CCCCOCCCC,394 nm
same,emission maximum,in CO,395 nm
N#Cc1ccc(C=C(c2ccccc2)c2ccccc2)cc1,emission maximum,in C1CCOC1,390 nm
CC(C)(C)c1ccc(-c2cc(-c3ccc(-c4cc(-c5ccc(C(C)(C)C)cc5)c(C(=O)NCc5cccs5)s4)s3)sc2C(=O)NCc2cccs2)cc1,emission maximum,in ClCCl,450 nm
CCN(CC)c1ccc(/C=N/Nc2ccc(C#N)cc2)c(O)c1,emission maximum,in CC#N,418 nm
same,emission maximum,in CCCCCC,403 nm
same,emission maximum,in CO,430 nm
same,emission maximum,in CS(C)=O,422 nm
same,emission maximum,in ClC(Cl)Cl,410 nm
N#CC1=C(N)n2c(=O)c3ccccc3c(=O)n2C1c1ccc([N+](=O)[O-])cc1 (stereo unspecified),emission maximum,in CS(C)=O,575 nm
CC[n+]1nc2cc3c4c(c2c2ccccc21)CCCN4CCC3,emission maximum,in O,570 nm
COc1cc(C(=O)c2c(C)c3ccc4cccc5c6cccc7ccc2c(c76)c3c45)cc(OC)c1OC,emission maximum,in ClCCl,456 nm
CNc1cccc2c1C(=O)c1ccccc1C2=O,emission maximum,in C1CCC2CCCCC2C1,565 nm
same,emission maximum,in C1CCCCC1,563 nm
same,emission maximum,in CC1CCCCC1,565 nm
same,emission maximum,in CC#N,617 nm
same,emission maximum,in CCC(C)CC,562 nm
same,emission maximum,in CCCCCC,560 nm
same,emission maximum,in CCOC(C)=O,600 nm
CCN(CC)c1ccc2cc(-c3ccc(-c4ccc5c6ccccc6c6c7cc(-c8ccc(-c9cc%10ccc(N(CC)CC)cc%10oc9=O)cc8)ccc7c7ccccc7c6c5c4)cc3)c(=O)oc2c1,emission maximum,in ClC(Cl)Cl,482 nm
CCCCn1c(-c2ccc(-c3nnc(-c4cccs4)o3)cc2)nc2c3ccccc3c3ccccc3c21,emission maximum,in ClCCl,448 nm
c1ccc(-c2oc(-c3ccccc3)c3ccccc23)cc1,emission maximum,in C1CCCCC1,448 nm
same,emission maximum,in C1CCOC1,451 nm
same,emission maximum,in CC#N,452 nm
same,emission maximum,in CCO,451 nm
same,emission maximum,in CN(C)C=O,458 nm
same,emission maximum,in CS(C)=O,460 nm
same,emission maximum,in Cc1ccccc1,454 nm
N#CC(C#N)=Cc1ccc2c(c1)[nH]c1c3ccccc3sc21,emission maximum,in C1CCOC1,547 nm
same,emission maximum,in CN(C)C=O,581 nm
same,emission maximum,in Cc1ccccc1,518 nm
same,emission maximum,in ClCCl,544 nm
CCCCCCOc1ccc(C#Cc2ccc(C#Cc3ccc(OCCCCCC)c(OCCCCCC)c3)c3nsnc23)cc1OCCCCCC,emission maximum,in C1CCCCC1,504 nm
same,emission maximum,in CCOC(C)=O,550 nm
same,emission maximum,in CN(C)C=O,600 nm
same,emission maximum,in COc1ccccc1,561 nm
same,emission maximum,in Cc1ccccc1,537 nm
same,emission maximum,in ClC(Cl)Cl,580 nm
same,emission maximum,in ClCCCl,581 nm
same,emission maximum,in ClCCl,577 nm
CCCCCCCCCn1c(-c2cc(-c3nc4ccccc4n3CCCCCCCCC)cc(-c3nc4ccccc4n3CCCCCCCCC)c2)nc2ccccc21,emission maximum,in C1CCOC1,361.1 nm
CC(C)(C)NC(=O)c1cccc2ccc3c4cc(F)ccc4c4ccc(F)cc4c3c12,emission maximum,in ClCCl,385 nm
CCN(CC)c1ccc2cc(C#N)/c(=N\C(=O)C(C)C)oc2c1,emission maximum,in CCO,470 nm
same,emission maximum,in ClCCl,460 nm
O=c1oc2ccc3ccccc3c2nc1-c1ccccc1,emission maximum,in CC#N,475 nm
same,emission maximum,in CCCCCC,453 nm
same,emission maximum,in CO,476 nm
same,emission maximum,in c1ccccc1,467 nm and 460 nm
Cc1cc(=O)oc2cc3c(cc12)c1c2ccccc2c2ccccc2c1c1c2ccccc2c2ccccc2c31,emission maximum,in ClC(Cl)Cl,536 nm
COc1ccc(-c2c3ccccc3c3n2[B-](F)(F)[N+]2=Cc4c5ccccc5c(-c5ccc(OC)cc5)n4[B-](F)(F)[N+]2=C3)cc1,emission maximum,in CC#N,606 nm
same,emission maximum,in CCCCCC,607 nm
same,emission maximum,in CN(C)C=O,613 nm
same,emission maximum,in Cc1ccccc1,616 nm
same,emission maximum,in ClCCl,614 nm
CCOC(=O)C1=C(N)n2c(=O)c3ccccc3c(=O)n2C1c1ccc([N+](=O)[O-])cc1 (stereo unspecified),emission maximum,in CS(C)=O,510 nm
c1ccc2c(c1)Cc1cc3c(cc1-2)Cc1ccccc1-3,emission maximum,in C1CCCCC1,340 nm
same,emission maximum,in ClCCl,356 nm
Cc1ccc2nc3c(=O)[nH]c(=O)[nH]c3nc2c1,emission maximum,in CC#N,426 nm
same,emission maximum,in ClCCCl,425 nm
CCCCCCCCCCCCNc1cccc2[n+]1[B-](F)(F)n1c(c3cccc4cccc1c43)=N2,emission maximum,in C1CCOC1,523 nm
same,emission maximum,in CC#N,519 nm
same,emission maximum,in CCCCCC,509 nm
same,emission maximum,in Cc1ccccc1,529 nm
same,emission maximum,in ClCCl,522 nm
